One assay has as its system melanoma cells. As to conditions: cited from earlier work.
The next assay concerns D458Med cells. Briefly: miRNA mimic library screen, CellTiter-Glo cell viability. Format: cell-based. The conditions noted are these: D458Med cells, 72 hours. How it is done:
To identify miRNAs that may sensitize VCR response in MB, a high-throughput screening platform was combined with a library of 1,902 chemically synthesized human miRNA mimics. The miRNAs are arrayed in a one-miRNA-one-well format in 96-well microtiter plates. Reverse transfection of Group 3/c-Myc-amplified D458Med cells was performed in triplicate in the presence and absence of a sublethal dose of VCR, which was optimized in four MB cell lines before the screen (FIG. 2A). Cells were subjected to VCR at an IC20 lethal concentration for 72 hours after 48 hours of transfection, and cell viability was measured (FIG. 1A). Candidate miRNAs were prioritized for validation by functional and interaction assays using standard Student t-tests (with pooled variance), false discovery rate (Q=0.5%), and by using the magnitude of response (lowest 2.5 percentile of the distribution of the μVCR/μControl ratios).
miRNA mimic library screen. The primary screen was conducted using MI00200 MISSION microRNA Mimic v.17, in which miRNA mimics were arrayed in a one-miRNA-one-well format in 96-well microtiter plates. […] Cell viability was assessed using CellTiter-Glo (Promega, Madison, Wis., USA) according to the manufacturer's protocol. ath-miR-416 or cel-miR-243 was added as a negative control, whereas siRNA against PLK-1 was used as a positive control in each plate. […]
A general note: In ATP-based viability assays light output follows the ATP content of the culture.

For `Nc1ccccc1NC(=O)c1ccc(CNC(=O)OCc2cccnc2)cc1` [MS-275], in the assay on melanoma cells, the RAD51 expression result is listed as “decreases RAD51 expression” and the “homologous recombination (HR)” value is “blocks HR”. Regarding `CC[C@]1(O)C[C@H]2CN(CCc3c([nH]c4ccccc34)[C@@](C(=O)OC)(c3cc4c(cc3OC)N(C=O)[C@H]3[C@@](O)(C(=O)OC)[C@H](OC(C)=O)[C@]5(CC)C=CCN6CC[C@]43[C@@H]65)C2)C1` [VCR, vincristine, reference compound], the 20% inhibitory concentration in the assay with D458Med cells is 2 nM.

Values taken from patent publication US20210071180A1, “MICRORNA 584-5P COMPOSITIONS AND METHODS FOR TREATING CANCER” (BOARD OF REGENTS, THE UNIVERSY OF TEXAS SYSTEM, priority 2018, published 2021).
